In PubChem BioAssay AID220 (DTP/NCI, 2004):
Values joined by “and” are separate entries in the source; they are usually repeats but may differ in a detail not shown here. Equal values may be shown once. Records with an inconclusive call do not appear.

System: CD8F1 mice, subcutaneous mammary adenocarcinoma, T/C%
Test: NCI In Vivo Anticancer Drug Screen. Data for tumor model Mammary Adenocarcinoma CD8F1 (subcutaneous) in CD8F1
Details: higher = larger tumour
In short: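 Compound-treated versus vehicle-treated mice with transplantable tumors; survival or tumor size compared as T/C.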

[1] = endpoint: median tumor weight (est.), dose: 12.5 mg/kg/injection, schedule: Q07DX005 (ip), vehicle: saline with Tween-80
[2] = endpoint: median tumor weight (est.), dose: 12.5 mg/kg/injection, schedule: Q07DX005 (ip), vehicle: saline
[3] = endpoint: median tumor weight (est.), dose: 25.0 mg/kg/injection, schedule: Q07DX005 (ip), vehicle: saline with Tween-80
[4] = endpoint: median tumor weight (est.), dose: 25.0 mg/kg/injection, schedule: Q07DX005 (ip), vehicle: saline
[5] = endpoint: median tumor weight (est.), dose: 50.0 mg/kg/injection, schedule: Q07DX005 (ip), vehicle: saline with Tween-80
[6] = endpoint: median tumor weight (est.), dose: 50.0 mg/kg/injection, schedule: Q07DX005 (ip), vehicle: saline
[7] = endpoint: median tumor weight (est.), dose: 100.0 mg/kg/injection, schedule: Q07DX005 (ip), vehicle: saline with Tween-80
[8] = endpoint: median tumor weight (est.), dose: 100.0 mg/kg/injection, schedule: Q07DX005 (ip), vehicle: saline
[9] = endpoint: median tumor weight (est.), dose: 200.0 mg/kg/injection, schedule: Q07DX005 (ip), vehicle: saline with Tween-80
[10] = endpoint: median tumor weight (est.), dose: 200.0 mg/kg/injection, schedule: Q07DX005 (ip), vehicle: saline
[11] = endpoint: median tumor weight (est.), dose: 400.0 mg/kg/injection, schedule: Q07DX005 (ip), vehicle: saline with Tween-80
[12] = endpoint: median tumor weight change, dose: 125.0 mg/kg/injection, schedule: Q01DX001 (ip), vehicle: saline with Tween-80
[13] = endpoint: median tumor weight change, dose: 500.0 mg/kg/injection, schedule: Q01DX001 (ip), vehicle: saline with Tween-80
[14] = endpoint: median tumor weight change, dose: 1000.0 mg/kg/injection, schedule: Q01DX001 (ip), vehicle: saline with Tween-80
[15] = endpoint: median tumor weight change, dose: 250.0 mg/kg/injection, schedule: Q01DX001 (ip), vehicle: saline with Tween-80

COC12C(COC(=O)NCCO)C3=C(C(=O)C(C)=C(N)C3=O)N1CC1NC12 (configuration not stated)
T/C (endpoint: median tumor weight change, dose: 12.5 mg/kg/injection, schedule: Q01DX001 (ip), vehicle: Klucel (hydroxypropylcellulose) (HPC)): 77 % of control
T/C (endpoint: median tumor weight change, dose: 25.0 mg/kg/injection, schedule: Q01DX001 (ip), vehicle: Klucel (hydroxypropylcellulose) (HPC)): 78 % of control
T/C (endpoint: median tumor weight change, dose: 50.0 mg/kg/injection, schedule: Q01DX001 (ip), vehicle: Klucel (hydroxypropylcellulose) (HPC)): 33 % of control
T/C (endpoint: median tumor weight change, dose: 100.0 mg/kg/injection, schedule: Q01DX001 (ip), vehicle: Klucel (hydroxypropylcellulose) (HPC)): -64 % of control

Cc1cn(C2CC3[O][Sn]([c]4ccccc4)([c]4ccccc4)[O]CC3O2)c(=O)[nH]c1=O (configuration not stated)
T/C [1]: 73 % of control
T/C [2]: 63 % of control
T/C [3]: 40 % of control
T/C [4]: 16 % of control
T/C [5]: 67 % of control
T/C [6]: 84 % of control
T/C [7]: 81 % of control
T/C [8]: 49 % of control
T/C [9]: 73 % of control
T/C [10]: 74 % of control
T/C (endpoint: median tumor weight (est.), dose: 500.0 mg/kg/injection, schedule: Q07DX005 (ip), vehicle: saline with Tween-80): 47 % of control

N/C=N/O
T/C [4]: 109 % of control
T/C [6]: 181 % of control
T/C [8]: 164 % of control
T/C [10]: 105 % of control
T/C (endpoint: median tumor weight (est.), dose: 400.0 mg/kg/injection, schedule: Q07DX005 (ip), vehicle: saline): 97 % of control
T/C (endpoint: median tumor weight (est.), dose: 600.0 mg/kg/injection, schedule: Q07DX005 (ip), vehicle: saline): 78 % of control

CCOC(=O)C(C)(C)Oc1ccc(Cl)cc1
T/C [1]: 61 % of control
T/C [3]: 113 % of control
T/C [5]: 84 % of control
T/C [7]: 72 % of control
T/C [9]: 77 % of control
T/C [11]: 64 % of control

CCOC(=O)c1ccc(NN=NCCF)cc1
T/C (endpoint: median tumor weight change, dose: 15.6 mg/kg/injection, schedule: Q01DX001 (ip), vehicle: distilled water + Tween-80): 80 % of control
T/C (endpoint: median tumor weight change, dose: 31.25 mg/kg/injection, schedule: Q01DX001 (ip), vehicle: distilled water + Tween-80): 65 % of control
T/C (endpoint: median tumor weight change, dose: 62.5 mg/kg/injection, schedule: Q01DX001 (ip), vehicle: distilled water + Tween-80): 114 % of control
T/C (endpoint: median tumor weight change, dose: 125.0 mg/kg/injection, schedule: Q01DX001 (ip), vehicle: distilled water + Tween-80): 56 % of control

CCOC(=O)C1(c2ccccc2)C(=O)Oc2ccccc21 (configuration not stated)
T/C [1]: 84 % of control
T/C [3]: 69 % of control
T/C [5]: 97 % of control
T/C [7]: 119 % of control
T/C [9]: 113 % of control
T/C [11]: 70 % of control
T/C [12]: 82 % of control
T/C [13]: 71 % of control
T/C [14]: 61 % of control
T/C (endpoint: median tumor weight change, dose: 2000.0 mg/kg/injection, schedule: Q01DX001 (ip), vehicle: saline with Tween-80): 100 % of control

Cc1ncc(CNC(=O)N(CCCl)N=O)c(N)n1
T/C (endpoint: median tumor weight (est.), dose: 6.25 mg/kg/injection, schedule: Q07DX005 (ip), vehicle: saline): 18 % of control
T/C [2]: 20 % of control
T/C [4]: 14 % of control

CCN1/C(=C/C=C/C=C/c2sc3ccccc3[n+]2CC)Sc2ccccc21
T/C (endpoint: median tumor weight (est.), dose: 0.37 mg/kg/injection, schedule: Q07DX006 (ip), vehicle: saline): 77 % of control
T/C (endpoint: median tumor weight (est.), dose: 0.75 mg/kg/injection, schedule: Q07DX006 (ip), vehicle: saline): 233 % of control

O=C1C=C2C(=CCOC2O)O1 (configuration not stated)
T/C (endpoint: median tumor weight (est.), dose: 0.5 mg/kg/injection, schedule: Q07DX005 (ip), vehicle: Klucel (hydroxypropylcellulose) (HPC)): 36 % of control
T/C (endpoint: median tumor weight (est.), dose: 1.0 mg/kg/injection, schedule: Q07DX005 (ip), vehicle: Klucel (hydroxypropylcellulose) (HPC)): 25 % of control
T/C (endpoint: median tumor weight (est.), dose: 1.5 mg/kg/injection, schedule: Q07DX005 (ip), vehicle: saline): 153 % of control
T/C (endpoint: median tumor weight (est.), dose: 2.0 mg/kg/injection, schedule: Q07DX005 (ip), vehicle: Klucel (hydroxypropylcellulose) (HPC)): 25 % of control
T/C (endpoint: median tumor weight (est.), dose: 3.0 mg/kg/injection, schedule: Q07DX005 (ip), vehicle: saline): 87 % of control
T/C (endpoint: median tumor weight (est.), dose: 4.0 mg/kg/injection, schedule: Q07DX005 (ip), vehicle: Klucel (hydroxypropylcellulose) (HPC)): 50 % of control
T/C (endpoint: median tumor weight change, dose: 5.0 mg/kg/injection, schedule: Q01DX001 (ip), vehicle: Klucel (hydroxypropylcellulose) (HPC)): 98 % of control

CCOC(=O)c1cn(C)c2c1C(O)=C(C(=O)OC)CC(=O)N2
T/C [12]: 79 % of control
T/C [15]: 97 % of control
T/C [13]: 83 % of control
T/C [14]: 95 % of control

CC1(C)OC(=O)N(CO)C1=O
T/C [2]: 52 % of control
T/C [4]: 73 % of control
T/C [6]: 9 % of control
T/C [8]: 110 % of control
T/C [10]: 104 % of control

CC1=C[S+](c2ccccc2)c2cccc3cc4ccccc4c1c23 (configuration not stated)
T/C (endpoint: median tumor weight change, dose: 0.62 mg/kg/injection, schedule: Q01DX001 (ip), vehicle: saline with Tween-80): 103 % of control
T/C (endpoint: median tumor weight change, dose: 5.0 mg/kg/injection, schedule: Q01DX001 (ip), vehicle: saline with Tween-80): 98 % of control
T/C (endpoint: median tumor weight change, dose: 10.0 mg/kg/injection, schedule: Q01DX001 (ip), vehicle: saline with Tween-80): 40 % of control and 59 % of control

CC(=O)[C@]1(O)Cc2c(O)c3c(c(O)c2[C@@H](OC2CC(N)C(O)C(C)O2)C1)C(=O)c1c(O)cccc1C3=O (some centres not stated)
T/C (endpoint: median tumor weight (est.), dose: 0.6 mg/kg/injection, schedule: Q07DX005 (ip), vehicle: water): 96 % of control

O=[Te]=O
T/C (endpoint: median tumor weight change, dose: 6.25 mg/kg/injection, schedule: Q01DX001 (ip), vehicle: suspension in saline): 73 % of control
T/C (endpoint: median tumor weight change, dose: 12.5 mg/kg/injection, schedule: Q01DX001 (ip), vehicle: suspension in saline): 83 % of control
T/C (endpoint: median tumor weight change, dose: 25.0 mg/kg/injection, schedule: Q01DX001 (ip), vehicle: suspension in saline): 61 % of control
T/C (endpoint: median tumor weight change, dose: 50.0 mg/kg/injection, schedule: Q01DX001 (ip), vehicle: suspension in saline): 94 % of control
T/C (endpoint: median tumor weight change, dose: 100.0 mg/kg/injection, schedule: Q01DX001 (ip), vehicle: suspension in saline): 106 % of control

CCC(C(=O)O)C(=O)O.[NH2-].[NH2-].[Pt+2]
T/C (endpoint: median tumor weight change, dose: 15.62 mg/kg/injection, schedule: Q01DX001 (ip), vehicle: saline): 172 % of control
T/C (endpoint: median tumor weight change, dose: 16.0 mg/kg/injection, schedule: Q01DX001 (ip), vehicle: saline): 121 % of control
T/C (endpoint: median tumor weight change, dose: 31.0 mg/kg/injection, schedule: Q01DX001 (ip), vehicle: saline): 46 % of control
T/C (endpoint: median tumor weight change, dose: 31.25 mg/kg/injection, schedule: Q01DX001 (ip), vehicle: saline): 87 % of control
T/C (endpoint: median tumor weight change, dose: 62.0 mg/kg/injection, schedule: Q01DX001 (ip), vehicle: saline): 68 % of control
T/C (endpoint: median tumor weight change, dose: 62.5 mg/kg/injection, schedule: Q01DX001 (ip), vehicle: saline): 92 % of control
T/C (endpoint: median tumor weight change, dose: 125.0 mg/kg/injection, schedule: Q01DX001 (ip), vehicle: saline): 2 % of control and 26 % of control

NS(=O)(=O)OCCCCCCCOS(N)(=O)=O
T/C (endpoint: median tumor weight change, dose: 62.0 mg/kg/injection, schedule: Q01DX001 (ip), vehicle: saline with Tween-80): 66 % of control
T/C (endpoint: median tumor weight change, dose: 62.5 mg/kg/injection, schedule: Q01DX001 (ip), vehicle: saline with Tween-80): 22 % of control
T/C [12]: 33 % of control and 34 % of control
T/C [15]: -27 % of control and -36 % of control
